Columns and labels:
Assay in all cases: relative viability (nuclei count vs DMSO), 5 days (fraction); higher = more cells survive
RU-SKI 43 + Olaparib = compound: CC[C@@H](C)CNCC(=O)N1CCC2=C([C@@H]1COC3=CC=CC(=C3)C)C=CS2 [RU-SKI 43] + O=C(c1cc(Cc2n[nH]c(=O)c3ccccc23)ccc1F)N1CCN(C(=O)C2CC2)CC1 [Olaparib] (partner 8 µM)
Outline: (§1)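 A single step with final 0.05% Triton X-100, 1% formaldehyde and 1 ug/ml Hoechst fixed the cells and stained nuclei 5 days after treatment. Lung cancer cell lines in 1536-well plates had been treated by pin tool the day after seeding with one drug alone or a fixed anchor-drug dose plus five library-drug doses (not always all listed) in √10 steps, and nuclei were counted on 4× images. Relative viability is the ratio of nuclei in treated wells to nuclei in vehicle wells, taken as the median of duplicate plates.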

Irinotecan + Vorinostat = compound: CCc1c2c(nc3ccc(OC(=O)N4CCC(N5CCCCC5)CC4)cc13)-c1cc3c(c(=O)n1C2)COC(=O)[C@]3(O)CC [Irinotecan] + O=C(CCCCCCC(=O)Nc1ccccc1)NO [Vorinostat] (partner 1 µM)
Outline: as §1

RU-SKI 43 + Vorinostat = compound: CC[C@@H](C)CNCC(=O)N1CCC2=C([C@@H]1COC3=CC=CC(=C3)C)C=CS2 [RU-SKI 43] + O=C(CCCCCCC(=O)Nc1ccccc1)NO [Vorinostat] (partner 1 µM)
Outline: as §1

RU-SKI 43 + AZD7762 = compound: CC[C@@H](C)CNCC(=O)N1CCC2=C([C@@H]1COC3=CC=CC(=C3)C)C=CS2 [RU-SKI 43] + NC(=O)Nc1cc(-c2cccc(F)c2)sc1C(=O)N[C@H]1CCCNC1 [AZD7762] (partner 0.2 µM)
Outline: as §1

NCI-H2085
relative viability (RU-SKI 43 + Olaparib; first compound 0.1 µM): 0.765
relative viability (RU-SKI 43 + Olaparib; first compound 0.3162 µM): 0.681
relative viability (RU-SKI 43 + Olaparib; first compound 1 µM): 0.717
relative viability (RU-SKI 43 + Olaparib; first compound 3.162 µM): 0.741
relative viability (RU-SKI 43 + Olaparib; first compound 10 µM): 0.785
relative viability (Irinotecan + Vorinostat; first compound 0.6325 µM): 0.753
relative viability (Irinotecan + Vorinostat; first compound 2 µM): 0.756
relative viability (Irinotecan + Vorinostat; first compound 6.325 µM): 0.583
relative viability (Irinotecan + Vorinostat; first compound 20 µM): 0.564
relative viability (RU-SKI 43 + Vorinostat; first compound 0.1 µM): 0.705
relative viability (RU-SKI 43 + Vorinostat; first compound 0.3162 µM): 0.659
relative viability (RU-SKI 43 + Vorinostat; first compound 1 µM): 0.808
relative viability (RU-SKI 43 + Vorinostat; first compound 3.162 µM): 0.793
relative viability (RU-SKI 43 + Vorinostat; first compound 10 µM): 0.726
relative viability (RU-SKI 43 + AZD7762; first compound 0.1 µM): 1.02
relative viability (RU-SKI 43 + AZD7762; first compound 0.3162 µM): 0.856
relative viability (RU-SKI 43 + AZD7762; first compound 1 µM): 0.948
relative viability (RU-SKI 43 + AZD7762; first compound 3.162 µM): 1.08
relative viability (RU-SKI 43 + AZD7762; first compound 10 µM): 1.02

NCI-H647
relative viability (RU-SKI 43 + Olaparib; first compound 0.1 µM): 0.584
relative viability (RU-SKI 43 + Olaparib; first compound 0.3162 µM): 0.821
relative viability (RU-SKI 43 + Olaparib; first compound 1 µM): 0.512
relative viability (RU-SKI 43 + Olaparib; first compound 3.162 µM): 0.695
relative viability (RU-SKI 43 + Olaparib; first compound 10 µM): 0.628
relative viability (Irinotecan + Vorinostat; first compound 0.6325 µM): 0.679
relative viability (Irinotecan + Vorinostat; first compound 2 µM): 0.398
relative viability (Irinotecan + Vorinostat; first compound 6.325 µM): 0.139
relative viability (Irinotecan + Vorinostat; first compound 20 µM): 0.0969
relative viability (RU-SKI 43 + Vorinostat; first compound 0.1 µM): 0.543
relative viability (RU-SKI 43 + Vorinostat; first compound 0.3162 µM): 0.948
relative viability (RU-SKI 43 + Vorinostat; first compound 1 µM): 0.573
relative viability (RU-SKI 43 + Vorinostat; first compound 3.162 µM): 0.731
relative viability (RU-SKI 43 + Vorinostat; first compound 10 µM): 0.527
relative viability (RU-SKI 43 + AZD7762; first compound 0.1 µM): 0.358
relative viability (RU-SKI 43 + AZD7762; first compound 0.3162 µM): 0.553
relative viability (RU-SKI 43 + AZD7762; first compound 1 µM): 0.583
relative viability (RU-SKI 43 + AZD7762; first compound 3.162 µM): 0.44
relative viability (RU-SKI 43 + AZD7762; first compound 10 µM): 0.499

NCI-H1793
relative viability (RU-SKI 43 + Olaparib; first compound 0.1 µM): 0.744
relative viability (RU-SKI 43 + Olaparib; first compound 0.3162 µM): 0.558
relative viability (RU-SKI 43 + Olaparib; first compound 1 µM): 1.02
relative viability (RU-SKI 43 + Olaparib; first compound 3.162 µM): 0.833
relative viability (RU-SKI 43 + Olaparib; first compound 10 µM): 0.719
relative viability (Irinotecan + Vorinostat; first compound 2 µM): 0.633
relative viability (Irinotecan + Vorinostat; first compound 6.325 µM): 0.372
relative viability (Irinotecan + Vorinostat; first compound 20 µM): 0.244
relative viability (RU-SKI 43 + Vorinostat; first compound 0.1 µM): 0.799
relative viability (RU-SKI 43 + Vorinostat; first compound 0.3162 µM): 0.742
relative viability (RU-SKI 43 + Vorinostat; first compound 1 µM): 0.872
relative viability (RU-SKI 43 + Vorinostat; first compound 3.162 µM): 0.792
relative viability (RU-SKI 43 + Vorinostat; first compound 10 µM): 0.602
relative viability (RU-SKI 43 + AZD7762; first compound 0.1 µM): 0.56
relative viability (RU-SKI 43 + AZD7762; first compound 0.3162 µM): 0.719
relative viability (RU-SKI 43 + AZD7762; first compound 1 µM): 0.641
relative viability (RU-SKI 43 + AZD7762; first compound 3.162 µM): 0.447
relative viability (RU-SKI 43 + AZD7762; first compound 10 µM): 0.29

LCLC-97TM1
relative viability (RU-SKI 43 + Olaparib; first compound 0.1 µM): 0.408
relative viability (RU-SKI 43 + Olaparib; first compound 0.3162 µM): 0.347
relative viability (RU-SKI 43 + Olaparib; first compound 1 µM): 0.535
relative viability (RU-SKI 43 + Olaparib; first compound 3.162 µM): 0.446
relative viability (RU-SKI 43 + Olaparib; first compound 10 µM): 0.416
relative viability (Irinotecan + Vorinostat; first compound 0.6325 µM): 0.104
relative viability (Irinotecan + Vorinostat; first compound 2 µM): 0.248
relative viability (Irinotecan + Vorinostat; first compound 6.325 µM): 0.114
relative viability (Irinotecan + Vorinostat; first compound 20 µM): 0.129
relative viability (RU-SKI 43 + Vorinostat; first compound 0.1 µM): 0.741
relative viability (RU-SKI 43 + Vorinostat; first compound 0.3162 µM): 0.705
relative viability (RU-SKI 43 + Vorinostat; first compound 1 µM): 0.823
relative viability (RU-SKI 43 + Vorinostat; first compound 3.162 µM): 0.629
relative viability (RU-SKI 43 + Vorinostat; first compound 10 µM): 0.669
relative viability (RU-SKI 43 + AZD7762; first compound 0.1 µM): 0.373
relative viability (RU-SKI 43 + AZD7762; first compound 0.3162 µM): 0.184
relative viability (RU-SKI 43 + AZD7762; first compound 1 µM): 0.255
relative viability (RU-SKI 43 + AZD7762; first compound 3.162 µM): 0.303
relative viability (RU-SKI 43 + AZD7762; first compound 10 µM): 0.239

Reference: the supplement of paper PMC10307832
